According to patent US20100075993A1, “SMALL MOLECULE INHIBITORS AGAINST WEST NILE VIRUS REPLICATION” (DREXEL UNIVERSITY, priority 2005, published 2010):

What was measured:
[1] = tested on: WNV replicon; assay: WNV replicon luciferase assay in BHK 26.5 cells (HTS, re-test, IC50); type: cell-based, West Nile virus; settings: for IC50: West Nile virus, 24 h; for Fold decrease (HTS) / Fold decrease (Re-test): luciferase activity; for Fold decrease (HTS): 10 μM compound, 24 hours, BHK 26.5 cells; for Fold decrease (Re-test): re-checked at a single 10 μM concentration
Method: Ten micromolar concentrations of a selected compound were incubated with BHK 26.5 cells expressing luciferase whose activity is dependent upon WNV replicon replication (FIG. 1A). Primary “hits” were defined by the ability to reduce the amount of luciferase enzyme activity by more than 50%, compared to controls.
To quantify and rank the activity of the 23 remaining compound “hits”, a serial dilution of each compound was incubated with WNV replicon cells to determine the concentration that inhibits 50% of the luciferase readout (IC50s). […] A number of compounds had significant effect only at the highest, 10 μM concentration. However, several compounds had IC50s between 2 and 5 (Table 3), which is very reasonable for primary HTS hits from a compound library. Only a few compounds could cause 90% inhibition in the replicon cells at the concentrations tested.
(§1) Replicon-harboring cells were plated 96-well plates at 10,000 cells per well in MEM plus 3% FBS. 24 hours after plating, compounds were added to the wells by a Robotic liquid handler (Biomek NX) to a final concentration of 10 μM and 1% DMSO. For each 96 well plate, A1 to A8 were left open, H1 to H4 contained 1% DMSO, H5-H8 contained Mycophenolic acid (Sigma-Aldrich, St. Louis, Mo.), which was included as positive controls. After 24 hours of treatment, the media were removed and the luciferase activity expressed in the replicon cells was quantified. When cyto-toxicity was measured, duplicate 96 well plates were plated with BHK 26.5 replicon cells. One plate was used for luciferase assay and one plate was used for measuring toxicity using MTT assay.
Luciferase assay was performed by using the STEADY GLO reagent (Promega Corp. Madison, Wis.) according to the manufacturer's recommendation with slight modifications. Briefly, the culture media from the 96 wells were removed by dumping on paper towels.
100 μl of a 1:1 mixture of luciferase regent and culture media were added to the plate. After 5-minute incubation, the luminescence was read on a TOPCOUNT (PerkinElmer, Wellesley, Mass.).

[2] = tested on: BHK 26.5 replicon cells; assay: MTT toxicity assay on BHK 26.5 replicon cells; type: cell-based; settings: MTT assay
From the text: The HTS strategy follows the flowchart outlined in FIG. 2. 35,000 compounds were screened from a chemical library described below, using a cutoff of 50% reduction in luminescence readout as the criteria for further study. Upon completion of the screen, approximately 1100 compounds were selected, making the hit rate of 3%. This is considerably higher than expected, implying many false positive and/or cytotoxic compounds. Nevertheless, the compounds were picked out from the “daughter” plates and re-checked at a single 10 μM concentration. In addition, a duplicate 96 well plates were also plated and the toxicity of the compounds was determined in an MTT assay. Upon completion of these assays, most compounds were disqualified as either false positives or being toxicity to cells. As a result, only a small number of compounds were further analyzed directly from the “mother” plate stock. After IC50 determination and secondary assay to rule out luciferase inhibitors, 23 “hits” were identified.
as §1
Compound toxicity was determined by MTT assay. For the MTT assay, the cell medium was removed and the monolayers were incubated with 100 μl/well of 0.5 mg/ml MTT for 6 h at 37° C. The MTT solution was then aspirated and 100 μl/well of the 10% SDS (in 0.01N HCl) was added, followed by spectrophotometric quantitation (570 nm) of the insoluble MIT reaction product.

[3] = tested on: WNV; assay: WNV yield reduction assay (live virus) on BHK cells; type: cell-based, West Nile virus; settings: live WNV
Method: The antiviral assay for the 309-F6 compounds was conducted on BHK cells. The virus produced in the presence of 1% DMSO or various concentrations of compounds was tittered on Vero cells. The amount of virus relative to the 1% DMSO control was plotted on the y-axis; the concentration of the compound 309F6 is shown in μM on the x-axis. Data from two independently treated wells (Test 1 and Test 2) are shown.
To measure activity against live WNV, BHK cells were plated in 96-well plates at a concentration of 12,000 cells/well. One day later the cells were infected with WNV for 1 h at an MOI of 0.05. The cells were then washed once and re-fed with fresh DMEM containing dilutions of the test compound. Plates were then incubated at 37° C. for 48 h, the supernatant collected and the WNV produced titered. For virus titration, Vero cells were plated in 96-well plates at 8000 cells/well and incubated overnight. The Vero cell monolayer were then infected for 1 h with various dilutions of the WNV supernatant, overlaid with media containing 0.6% tragacanth (ICN, CA) and incubated at 37° C. for 48 h. The culture media was then aspirated; the plate was rinsed, air-dried, and fixed with 50 μl/well acetone/methanol (50:50). Viral foci were detected for enumeration by immunostaining as described previously (15).

SMILES	IC50 [1] [µM]	Fold decrease (HTS) [1] [Fold]	Fold decrease (Re-test) [1] [Fold]	Toxicity (uM)* [2] [µM]	activity in the WNV infection assay [3]
NC(=O)CCS(=O)(=O)c1ccc(Cl)cc1 [Compound 2-H7, 3-(4-Chloro-benzenesulfonyl)-propionamide]	2.5	4.5	2.5	>20	
Cc1cccc(-n2nc3c(c2NC(=O)c2ccc(S(=O)(=O)N4CCCCC4)cc2)CSC3)c1 [Compound 18-H5, 4-(Piperidine-1-sulfonyl)-N-(2-m-tolyl-2,6-dihydro-4H-thieno[3,4-c]pyrazol-3-yl)-benzamide]	7.5	2	2	>30	
Cc1ccc(-n2nc3c(c2NC(=O)C2CC2)CSC3)c(C)c1 [Compound 20-E7, Cyclopropanecarboxylic acid [2-(2,4-dimethyl-phenyl)-2,6-dihydro-4H-thieno[3,4-c]pyrazol-3-yl]-amide]	10	2.3	2.4	>10	
O=C1Nc2ccc(S(=O)(=O)Nc3cc(Cl)ccc3Cl)c3cccc1c23 [Compound 24-C10, 2-Oxo-1,2-dihydro-benzo[cd]indole-6-sulfonic acid (2,5-dichloro-phenyl)-amide]	10	2.5	1.8	>10	
Cc1ccc(S(=O)(=O)N2Cc3ccccc3CC2C(=O)Nc2ccc(Cl)cc2)cc1 (stereo not drawn) [Compound 42-E5, 2-(Toluene-4-sulfonyl)-1,2,3,4-tetrahydro-isoquinoline-3-carboxylic acid(4-chloro-phenyl)-amide]	7.5	7	1.7	>10	
Cc1cc(C)c2nc(NC3=NC(c4ccccc4)CC(=O)N3)nc(C)c2c1 (stereo not drawn) [Compound 50-A8, 6-Phenyl-2-(4,6,8-trimethyl-quinazolin-2-ylamino)-5,6-dihydro-3H-pyrimidin-4-one]	5	4.5	2.3	>10	
CCOC(=O)c1cnc2ccc(OCC)cc2c1NCc1ccccc1 [Compound 63-C10, 4-Benzylamino-6-ethoxy-quinoline-3-carboxylic acid ethyl ester]	5	3.5		>20	
CC1CC(C)CN(S(=O)(=O)c2ccc(C3CCCCC3)cc2)C1 (stereo not drawn) [Compound 182-C2, 1-(4-Cyclohexyl-benzenesulfonyl)-3,5-dimethyl-piperidine]		5	1.4	>10	
CCc1cccc(NC(=O)C(Cc2ccccc2)NS(=O)(=O)c2cccs2)c1 (stereo not drawn) [Compound 207-E5, N-(3-Ethyl-phenyl)-3-phenyl-2-(thiophene-2-sulfonylamino)-propionamide]	10	5	2	>10	
COc1cc(OC)cc(C(=O)Nc2c3c(nn2-c2cccc(Cl)c2)CSC3)c1 [Compound 253-B10, N-[2-(3-Chloro-phenyl)-2,6-dihydro-4H-thieno[3,4-c]pyrazol-3-yl]-3,5-dimethoxy-benzamide]	3	2	2	>30	
COc1ccc(-n2nc3c(c2NC(=O)c2ccc(OC(C)C)cc2)CSC3)cc1 [Compound 253-F8, 4-Isopropoxy-N-[2-(4-methoxy-phenyl)-2,6-dihydro-4H-thieno[3,4-c]pyrazol-3-yl]-benzamide]	10	2.5	2	>30	
O=C(Nc1c2c(nn1-c1ccc(F)cc1)CSC2)c1ccc2c(c1)OCO2 [Compound 253-F11, Benzo[1,3]dioxole-5-carboxylic acid [2-(4-fluoro-phenyl)-2,6-dihydro-4H-thieno[3,4-c]pyrazol-3-yl]-amide]	10	3	2	>30	
COc1ccc(-n2nc3c(c2NC(=O)c2ccc4c(c2)OCO4)CSC3)cc1 [Compound 253-G8, Benzo[1,3]dioxole-5-carboxylic acid [2-(4-methoxy-phenyl)-2,6-dihydro-4H-thieno[3,4-c]pyrazol-3-yl]-amide]	2.5	2	2	>30	
CCOc1ccc(C(=O)Nc2c3c(nn2-c2ccc(OC)cc2)CSC3)cc1OCC [Compound 253-H8, 3,4-Diethoxy-N-[2-(4-methoxy-phenyl)-2,6-dihydro-4H-thieno[3,4-c]pyrazol-3-yl]-benzamide]	10	2	1.5	>30	
CCC(C)NC(=O)c1cnn2c(O)c(Cc3ccccc3Cl)c(C)nc12 (stereo not drawn) [Compound 275-D9, 6-(2-Chloro-benzyl)-7-hydroxy-5-methyl-pyrazolo[1,5-a]pyrimidine-3-carboxylic acid sec-butylamide]	7.5	10	2.9	>10	no detectable activity
COc1ccc(CCC(=O)Nc2ccc(C(=N)NO)cc2)cc1 [Compound 331-E11, N-[4-(N-Hydroxycarbamimidoyl)-phenyl]-3-(4-methoxy-phenyl)-propionamide]	5	3	1.5	>30	
